Test results taken from patent US20220144812A1, “QUINOLINE DERIVATIVES AND THEIR USE FOR THE TREATMENT OF CANCER” (Epizyme, Inc., priority 2019, published 2022).

Tests used:
[1] = tested on: H3K18Ac in HB-CLS-2 cells; experiment: H3K18AC in-cell western (ICW) assay; type: cell-based; conditions: 2 h, H3K18Ac in HB-CLS-2 cells, 2 hrs compound incubation; read-out: CREBBP ICW IC50
In short: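 In-cell western: after methanol fixation, blocking, overnight 4° C anti-H3K18Ac staining, then 800CW secondary plus DRAQ5 for DNA content, integrated intensities were scanned at 800 and 700 nm. Before this, compound exposure lasted 2 hr at 37° C in HB-CLS-2 cells plated 16–24 hours earlier. Values expressed as IC50 (μM).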

647V cells = experiment: High throughput proliferation (HTP) assay; type: cell-based; conditions: Homo sapiens, 647-V, 168 h, 647V cells, day 7, CellTiter-Glo; read-out: CREBBP HTP IC50
In short: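 Proliferation IC50 (micromolar) derived from a 7-day CellTiter-Glo viable-cell readout in 647V cells exposed, in triplicate, to rising compound concentrations; cells grown in DMEM plus 15% heat-inactivated FBS at 37° C under 5% CO2.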

CREBBP (1084-1701) = molecular target: T1, CREBBP (1084-1701) (Homo sapiens, UniProt Q92793); experiment: Biochemical assay for CREBBP (1084-1701), SAMDI; conditions: Peptide #233, Acetyl-CoA, SAMDI mass spectrometry, read-out: CREBBP Biochemistry IC50
T1 construct: measured in the following biochemical assay using CREBBP (1084-1701); purchased
In short: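 Acetyltransferase activity measured by SAMDI mass spectrometry after capture on biochip. Enzyme sat with compound 30 min at RT before acetyl-CoA and biotinylated H3 11-25 (K14R, K23R) peptide were added for 30 min at RT. Formic acid quench, bicarbonate neutralisation; IC50 values reported.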

EP300 (P300(1048-1664)) = molecular target: T2, EP300 (P300(1048-1664)) (Homo sapiens, UniProt Q09472); experiment: Biochemical assay for EP300, SAMDI; conditions: P300(1048-1664), Peptide #233, Ac-CoA, SAMDI mass spectrometry; read-out: EP300 Biochemistry IC50
T2 construct: P300(1048-1664)
T2 sequence (Q09472 1048-1664): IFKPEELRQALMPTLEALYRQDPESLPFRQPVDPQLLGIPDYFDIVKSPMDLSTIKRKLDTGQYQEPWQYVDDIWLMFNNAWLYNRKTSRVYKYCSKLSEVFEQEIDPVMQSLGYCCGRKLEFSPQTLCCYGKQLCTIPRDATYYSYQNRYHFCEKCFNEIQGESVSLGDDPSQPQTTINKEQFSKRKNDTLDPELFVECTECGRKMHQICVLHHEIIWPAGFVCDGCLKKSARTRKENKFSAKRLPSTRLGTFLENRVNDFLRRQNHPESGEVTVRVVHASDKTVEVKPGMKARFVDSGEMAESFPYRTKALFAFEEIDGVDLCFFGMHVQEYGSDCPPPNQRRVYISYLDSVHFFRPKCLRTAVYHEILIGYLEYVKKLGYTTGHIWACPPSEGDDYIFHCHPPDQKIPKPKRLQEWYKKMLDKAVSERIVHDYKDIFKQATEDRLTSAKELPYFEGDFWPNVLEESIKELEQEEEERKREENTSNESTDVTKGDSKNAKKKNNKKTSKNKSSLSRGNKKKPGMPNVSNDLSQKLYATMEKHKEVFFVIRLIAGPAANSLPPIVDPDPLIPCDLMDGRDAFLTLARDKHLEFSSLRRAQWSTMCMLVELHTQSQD
Excerpt: The following example describes materials and methods relating to a biochemical assay for EP300. IC50 values (micromolar (μM)) are summarized in Table 1, Table 2, and Table 3 under the column labeled: “EP300 Biochemistry IC50 (micromolar).”

T1 sequence (Q92793 1084-1701): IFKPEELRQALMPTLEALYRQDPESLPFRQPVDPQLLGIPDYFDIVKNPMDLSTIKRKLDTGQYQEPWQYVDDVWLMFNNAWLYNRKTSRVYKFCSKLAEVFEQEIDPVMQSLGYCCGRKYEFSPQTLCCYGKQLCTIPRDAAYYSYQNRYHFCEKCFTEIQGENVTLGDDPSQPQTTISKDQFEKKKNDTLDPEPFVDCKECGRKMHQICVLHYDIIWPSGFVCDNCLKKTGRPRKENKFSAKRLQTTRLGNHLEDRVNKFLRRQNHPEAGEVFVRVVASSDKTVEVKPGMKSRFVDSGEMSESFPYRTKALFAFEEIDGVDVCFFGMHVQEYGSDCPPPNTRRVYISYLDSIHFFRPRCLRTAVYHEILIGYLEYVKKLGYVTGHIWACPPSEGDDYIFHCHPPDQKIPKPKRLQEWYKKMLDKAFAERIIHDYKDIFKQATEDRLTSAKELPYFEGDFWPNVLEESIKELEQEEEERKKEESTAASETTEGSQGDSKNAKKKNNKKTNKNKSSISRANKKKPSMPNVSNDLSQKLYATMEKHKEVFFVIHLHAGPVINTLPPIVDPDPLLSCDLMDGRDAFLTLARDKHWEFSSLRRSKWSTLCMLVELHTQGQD

For `Cc1nc(-c2cc(C(=O)N(C)Cc3cnc(C4CC4)n3C)c3cc(Cl)ccc3n2)ccc1NC1CCN(C)C1` (stereo not drawn) [Compound 640], the IC50 [1] was 135 nM, the IC50 (647V cells) was 48.7 nM and the IC50 (CREBBP (1084-1701)) was 24.6 nM. The IC50 (EP300 (P300(1048-1664))) was 9 nM.

In the case of `COCc1ccc2nc(-c3ccc(NCCN(C)C)c(C)n3)cc(C(=O)N(C)Cc3cnc(C4CC4)n3C)c2c1` [Compound 641], the IC50 [1] is reported as 200 nM, the IC50 (647V cells) is reported as 111 nM and the IC50 (CREBBP (1084-1701)) is reported as 73.3 nM. For the same compound, the IC50 (EP300 (P300(1048-1664))) was 22.1 nM.

Work on `CCc1ncc(CN(C)C(=O)c2cc(-c3ccc(NC4CCN(C)C4)c(C)n3)nc3ccc(Cl)cc23)n1C` (stereo not drawn) [Compound 642] yielded an IC50 [1] of 86.6 nM, an IC50 (647V cells) of 33.4 nM and an IC50 (CREBBP (1084-1701)) of 28.1 nM. The IC50 (EP300 (P300(1048-1664))) was 9.1 nM.
